What was measured:
[1] = system: MDA-MB-231 cells; assay: Cell proliferation assay (crystal violet); assay type: cell-based; details: various concentrations, 72 hours
Method: MDA-MB-231 cells treated with a compound of the present application (e.g., compound 1-1, 2-5, 1-14 and 3-8, respectively) were seeded at a density of 5×10^4cells/well in 12-well plate and incubated at 37° C. with 5% CO2. After 72 hours of culturing, the cells were washed with PBS, fixed in 4% formaldehyde for 15 minutes and stained with 0.1% crystal violet for 20 minutes. Cells were washed with water and the staining was extracted with 10% acetic acid for 20 minutes and absorbance was measured at 590 nm. The experiments were performed in triplicates.

[2] = target: wild type CK1δ (Homo sapiens, UniProt P48730); assay: CK1δ kinase assay (Kinase-Glo); assay type: biochemical; details: 10 μM ATP, 2 nM wild type CK1δ, 85 min at 25° C.; read-out: CK1δ inhibition (IC50)
Method: The CK1δ kinase assay was performed with a buffer (40 μL, pH 7.5) containing 50 mM Tris, 10 mM MgCl2, 1 mM dithiothreitol, 100 μg/mL BSA with 10 μM ATP, 2 nM wild type CK1δ, and 42 μM peptide substrate PLSRTLpSVASLPGL (Flotow et al., 1990) in the presence of 1 μL of a CK1δ inhibitor (e.g., a compound of the present application) or 4% DMSO (e.g., as control). The reaction mixture was incubated for 85 min at 25° C.; detection was carried out as described for the Kinase-Glo Assay (Promega). Luminescent output was measured on the Perkin Elmer Envision plate reader (PerkinElmer, Waltham, Mass.).

[3] = system: MDA-MB-231 cells (breast cancer cells); assay: Transwell cell migration assay; assay type: cell-based; details: MDA-MB-231, 24 h; for relative migration (%) of cells: FIG. 61; for migrated cells: FIGS. 62-67
Method: MDA-MB-231 cells (breast cancer cells) were starved in 0.5% serum-DMEM for 8 hours. For the migration assay, a total of 5×10^4cells were suspended in 500 μL of serum-free DMEM medium and seeded into the upper chamber of a […] pore size insert. Then, 750 μL of DMEM (containing 10% FBS) with or without the compound of the present application was added to the lower compartment. After incubation at 37° C. for 24 h, migrated cells were washed with PBS, fixed in 4% PFA and stained for 30 min in crystal violet solution (0.1% crystal violet). […] Each insert was photographed in 3 random fields at a magnification of 40×.

wild type CK1δ, sequence (P48730 whole entry): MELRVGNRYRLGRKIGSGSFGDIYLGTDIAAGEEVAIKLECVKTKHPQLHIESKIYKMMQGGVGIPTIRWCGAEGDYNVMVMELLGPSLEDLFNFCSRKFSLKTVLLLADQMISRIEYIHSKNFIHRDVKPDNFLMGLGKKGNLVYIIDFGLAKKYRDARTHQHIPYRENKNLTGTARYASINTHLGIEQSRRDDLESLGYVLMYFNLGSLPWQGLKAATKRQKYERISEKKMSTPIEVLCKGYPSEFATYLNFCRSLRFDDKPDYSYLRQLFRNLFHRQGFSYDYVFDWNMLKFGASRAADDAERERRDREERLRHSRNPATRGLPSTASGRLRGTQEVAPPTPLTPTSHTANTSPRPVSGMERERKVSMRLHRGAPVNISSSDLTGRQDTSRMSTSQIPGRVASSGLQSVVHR

| SMILES | relative proliferation (%) of cells [1] | IC50 [2] | relative migration (%) of cells [3] | migrated cells [3] |
| --- | --- | --- | --- | --- |
| COc1ccc(Cn2nnc(-c3ccc(F)cc3)c2-c2ccncc2)cc1 [Compound 3-8, 4-(4-(4-fluorophenyl)-1-(4-methoxybenzyl)-1H-1,2,3-triazol-5-yl)pyridine] | affected in a concentration dependent manner | 97.4 µM | – | – |
| CC(=O)N1CCn2nc(-c3ccc(F)cc3)c(-c3ccncc3)c2C1 [Compound 1-14, 1-(2-(4-fluorophenyl)-3-(pyridin-4-yl)-6,7-dihydropyrazolo[1,5-a]pyrazin-5(4H)-yl)ethan-1-one] | affected in a concentration dependent manner | 0.0615 µM | reduced | suppressed the migration |
| Nc1nccc(-c2c(-c3ccc(F)cc3)nc3cnccn23)n1 [Compound 1-1, 4-(2-(4-fluorophenyl)imidazo[1,2-a]pyrazin-3-yl)pyrimidin-2-amine] | affected in a concentration dependent manner | – | reduced | suppressed the migration |
| Fc1ccc(-c2nc3c(n2-c2ccncc2)CCCC3)cc1 [Compound 2-5, 2-(4-fluorophenyl)-1-(pyridin-4-yl)-4,5,6,7-tetrahydro-1H-benzo[d]imidazole] | affected in a concentration dependent manner | 0.408 µM | reduced | suppressed the migration |

Reference: patent publication US20230192699A1, “COMPOUNDS AS CASEIN KINASE INHIBITORS” (GRITSCIENCE BIOPHARMACEUTICALS CO., LTD., priority 2020, published 2023)
